Source: ChEMBL document CHEMBL2390846, “Small-molecule pyrimidine inhibitors of the cdc2-like (Clk) and dual specificity tyrosine phosphorylation-regulated (Dyrk) kinases: development of chemical probe ML315” (Bioorg Med Chem Lett, 2013)
One block for each molecule: values may come before it.

Key:
[1] = target: T1, Dual specificity protein kinase CLK4 (Homo sapiens, UniProt Q9HAZ1); test: Inhibition of CLK4 (unknown origin) by bioluminescence assay
[2] = target: T2, Dual specificity tyrosine-phosphorylation-regulated kinase 1A (Homo sapiens, UniProt Q13627); test: Inhibition of DYRK1A (unknown origin) by bioluminescence assay
[3] = target: Dual specificity tyrosine-phosphorylation-regulated kinase 1B (Homo sapiens, UniProt Q9Y463)
Sequence of Dual specificity tyrosine-phosphorylation-regulated kinase 1B (Q9Y463 whole entry): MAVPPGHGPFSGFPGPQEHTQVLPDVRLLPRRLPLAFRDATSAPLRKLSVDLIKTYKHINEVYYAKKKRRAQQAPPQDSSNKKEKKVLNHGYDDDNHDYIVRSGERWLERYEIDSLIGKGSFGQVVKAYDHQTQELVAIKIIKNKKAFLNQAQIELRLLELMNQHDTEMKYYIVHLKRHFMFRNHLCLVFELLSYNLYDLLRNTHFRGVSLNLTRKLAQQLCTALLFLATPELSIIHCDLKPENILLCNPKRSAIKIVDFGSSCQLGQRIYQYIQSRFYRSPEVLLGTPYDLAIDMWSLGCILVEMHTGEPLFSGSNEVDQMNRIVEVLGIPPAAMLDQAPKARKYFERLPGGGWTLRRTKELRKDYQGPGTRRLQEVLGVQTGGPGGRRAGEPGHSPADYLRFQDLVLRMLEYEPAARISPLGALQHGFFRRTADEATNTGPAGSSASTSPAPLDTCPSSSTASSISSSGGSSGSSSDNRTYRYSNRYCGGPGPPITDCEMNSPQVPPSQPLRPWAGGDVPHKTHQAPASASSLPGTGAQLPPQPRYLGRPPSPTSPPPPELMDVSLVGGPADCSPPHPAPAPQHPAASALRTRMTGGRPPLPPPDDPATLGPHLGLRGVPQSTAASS

[4] = target: Dual specificity protein kinase CLK1 (Homo sapiens, UniProt P49759)
Sequence of Dual specificity protein kinase CLK1 (P49759 whole entry): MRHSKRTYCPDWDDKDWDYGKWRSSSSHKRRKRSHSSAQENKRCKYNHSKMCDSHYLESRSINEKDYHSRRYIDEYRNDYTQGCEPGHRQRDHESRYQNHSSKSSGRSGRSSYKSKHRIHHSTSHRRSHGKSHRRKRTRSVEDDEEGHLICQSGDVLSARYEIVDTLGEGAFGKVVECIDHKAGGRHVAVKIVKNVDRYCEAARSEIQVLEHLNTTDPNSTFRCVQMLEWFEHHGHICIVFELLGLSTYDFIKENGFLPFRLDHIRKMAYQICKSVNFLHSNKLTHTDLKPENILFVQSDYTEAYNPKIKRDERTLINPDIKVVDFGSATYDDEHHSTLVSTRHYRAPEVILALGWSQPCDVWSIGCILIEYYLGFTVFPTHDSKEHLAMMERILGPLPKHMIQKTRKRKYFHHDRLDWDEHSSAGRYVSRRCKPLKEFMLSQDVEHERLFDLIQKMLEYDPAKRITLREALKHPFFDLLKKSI

[5] = target: T2, Dual specificity tyrosine-phosphorylation-regulated kinase 1A
[6] = target: Dual specificity protein kinase CLK2 (Homo sapiens, UniProt P49760)
Sequence of Dual specificity protein kinase CLK2 (P49760 whole entry): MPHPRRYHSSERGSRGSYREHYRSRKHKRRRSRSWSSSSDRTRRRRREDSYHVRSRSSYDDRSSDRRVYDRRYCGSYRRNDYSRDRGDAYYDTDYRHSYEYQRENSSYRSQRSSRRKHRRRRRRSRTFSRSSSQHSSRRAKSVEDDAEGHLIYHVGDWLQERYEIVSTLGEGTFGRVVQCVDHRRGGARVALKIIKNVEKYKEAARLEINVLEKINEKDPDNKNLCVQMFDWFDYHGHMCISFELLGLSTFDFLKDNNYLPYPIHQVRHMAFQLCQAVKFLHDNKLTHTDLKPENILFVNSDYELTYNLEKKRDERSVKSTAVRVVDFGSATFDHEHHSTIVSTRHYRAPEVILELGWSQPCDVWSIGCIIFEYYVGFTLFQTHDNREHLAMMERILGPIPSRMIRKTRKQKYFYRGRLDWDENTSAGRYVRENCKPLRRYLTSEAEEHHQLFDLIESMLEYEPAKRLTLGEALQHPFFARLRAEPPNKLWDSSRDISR

[7] = target: T1, Dual specificity protein kinase CLK4

T1 sequence (Q9HAZ1 whole entry): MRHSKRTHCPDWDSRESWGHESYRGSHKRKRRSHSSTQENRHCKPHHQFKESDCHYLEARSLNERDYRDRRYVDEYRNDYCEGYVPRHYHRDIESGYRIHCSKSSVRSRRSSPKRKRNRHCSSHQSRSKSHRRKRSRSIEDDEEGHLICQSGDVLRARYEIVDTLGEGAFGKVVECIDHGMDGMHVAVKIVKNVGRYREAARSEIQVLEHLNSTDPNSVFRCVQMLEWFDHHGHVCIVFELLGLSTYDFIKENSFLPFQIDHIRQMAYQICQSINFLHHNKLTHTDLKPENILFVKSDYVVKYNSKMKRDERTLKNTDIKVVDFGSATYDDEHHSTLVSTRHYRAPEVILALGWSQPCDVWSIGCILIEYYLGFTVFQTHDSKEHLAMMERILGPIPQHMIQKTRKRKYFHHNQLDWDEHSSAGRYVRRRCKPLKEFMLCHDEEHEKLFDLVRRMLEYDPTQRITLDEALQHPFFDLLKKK

IC50 ([1]; read-out: IC50): 23.2 µM
Structure (SMILES): Cc1ccc(CNc2ccnc(-c3cccc(C#N)c3)n2)cc1

IC50 ([1]; read-out: IC50): 4.63 µM
Structure (SMILES): Clc1ccc(CNc2cc(-c3ccc4c(c3)OCO4)ncn2)cc1Cl

Structure (SMILES): Clc1ccc(CNc2ccnc(-c3ccc4c(c3)OCO4)n2)cc1
IC50 ([1]; read-out: IC50): 41.2 µM
IC50 [2]: Not Active

IC50 [3]: 6.78 µM
IC50 [4]: > 10 µM
IC50 [5]: 6.36 µM
IC50 ([1]; read-out: IC50): 5.82 µM
IC50 ([2]; read-out: IC50): 7.33 µM
IC50 [6]: > 10 µM
IC50 [7]: 6.81 µM
Structure (SMILES): COc1cccc(-c2ccnc(NCc3ccc(Cl)cc3)n2)c1

IC50 ([1]; read-out: IC50): 26 µM
IC50 [2]: Not Active
Structure (SMILES): Clc1ccc(CNc2ccnc(-c3ccc4c(c3)OCO4)n2)cc1Cl

IC50 ([1]; read-out: IC50): 36.8 µM
IC50 [2]: Not Active
Structure (SMILES): COc1ccc(CNc2ccnc(-c3ccc(OC)cc3)n2)cc1

IC50 ([1]; read-out: IC50): 1.64 µM
Structure (SMILES): Clc1cc(Cl)cc(CNc2cc(-c3ccc4c(c3)OCO4)ncn2)c1

Structure (SMILES): Clc1ccc(CNc2cc(-c3ccc4c(c3)OCO4)ncn2)cc1
IC50 ([1]; read-out: IC50): 2.32 µM

IC50 ([1]; read-out: IC50): 29.2 µM
IC50 [2]: Not Active
Structure (SMILES): COc1ccc(-c2nccc(NCc3ccccc3)n2)cc1

IC50 ([1]; read-out: IC50): 13 µM
Structure (SMILES): COc1cccc(-c2nccc(NCc3ccc(Cl)cc3)n2)c1

IC50 ([1]; read-out: IC50): 26 µM
IC50 [2]: Not Active
Structure (SMILES): N#Cc1cccc(-c2ncccn2)c1

IC50 ([1]; read-out: IC50): 9.2 µM
Structure (SMILES): COc1ccc(CNc2ccnc(-c3cccc(C#N)c3)n2)cc1

IC50 ([1]; read-out: IC50): 26 µM
IC50 [2]: Not Active
Structure (SMILES): Cc1ccc(CNc2ccnc(-c3cccnc3)n2)cc1

IC50 ([1]; read-out: IC50): 0.05 µM
Structure (SMILES): Clc1ccc(CNc2nccc(-c3ccc4c(c3)OCO4)n2)cc1

IC50 [1]: Not Active
Structure (SMILES): COc1ccc(CNc2ccnc(-c3ccc4c(c3)OCO4)n2)cc1

IC50 [3]: 0.042 µM
IC50 [4]: 0.18 µM
IC50 [5]: 0.025 µM
IC50 ([1]; read-out: IC50): 0.12 µM
IC50 ([2]; read-out: IC50): 0.13 µM
IC50 [6]: 0.259 µM
IC50 [7]: 0.075 µM
Structure (SMILES): c1cc(-c2ccc3c(c2)OCO3)nc(Nc2ccc3c(c2)OCO3)n1

IC50 ([1]; read-out: IC50): 2.2 µM
Structure (SMILES): COc1ccccc1CNc1ncncc1-c1ccc2c(c1)OCO2

IC50 ([1]; read-out: IC50): 31.6 µM
Structure (SMILES): c1ccc(CNc2ccnc(-c3cccnc3)n2)cc1

IC50 ([1]; read-out: IC50): 23.2 µM
Structure (SMILES): COc1ccc(CNc2ccnc(-c3cccc(OC)c3)n2)cc1

Structure (SMILES): Cc1ccc(CNc2ccnc(-c3ccc4c(c3)OCO4)n2)cn1
IC50 ([1]; read-out: IC50): 32.8 µM

IC50 [1]: Not Active
IC50 [2]: Not Active
Structure (SMILES): COc1ccc(CNc2ccnc(-c3c(C)noc3C)n2)cc1

IC50 ([1]; read-out: IC50): 18.4 µM
Structure (SMILES): Clc1cncc(CNc2ccnc(-c3ccc4c(c3)OCO4)n2)c1

IC50 ([1]; read-out: IC50): 29.2 µM
IC50 [2]: Not Active
Structure (SMILES): COc1ccc(-c2ncccn2)cc1

IC50 [1]: Not Active
IC50 [2]: Not Active
Structure (SMILES): CN(C)c1ccc(-c2ncccn2)cc1

IC50 ([1]; read-out: IC50): 5.2 µM
Structure (SMILES): Fc1cc(F)cc(CNc2ccnc(-c3ccc4c(c3)OCO4)n2)c1

IC50 [3]: > 10 µM
IC50 [4]: 4.8 µM
IC50 [5]: > 10 µM
IC50 ([2]; read-out: IC50): 26 µM
IC50 [6]: > 10 µM
Structure (SMILES): c1cncc(CNc2ncncc2-c2ccc3c(c2)OCO3)c1

IC50 [4]: > 10 µM
IC50 ([1]; read-out: IC50): 26 µM
IC50 ([2]; read-out: IC50): 26 µM
IC50 [7]: > 10 µM
Structure (SMILES): COc1ccc(-c2ccnc(NCc3ccc(Cl)c(Cl)c3)n2)cc1OC

IC50 [1]: Not Active
IC50 [2]: Not Active
Structure (SMILES): CN(C)c1ccc(-c2nccc(NCc3ccc(Cl)c(Cl)c3)n2)cc1

IC50 [3]: > 10 µM
IC50 [4]: 0.626 µM
IC50 [5]: 3.45 µM
IC50 ([1]; read-out: IC50): 0.58 µM
IC50 ([2]; read-out: IC50): 4.12 µM
IC50 [6]: 1.56 µM
IC50 [7]: 0.526 µM
Structure (SMILES): Clc1ccc(CNc2ncncc2-c2ccc3c(c2)OCO3)cc1Cl

IC50 [1]: Not Active
IC50 [2]: Not Active
Structure (SMILES): Cc1noc(C)c1-c1nccc(NCc2ccc(Cl)cc2)n1

IC50 ([1]; read-out: IC50): 13 µM
IC50 [2]: Not Active
Structure (SMILES): COc1ccc(-c2nccc(NCc3ccc(Cl)cc3)n2)cc1

IC50 ([1]; read-out: IC50): 9.2 µM
IC50 [2]: Not Active
Structure (SMILES): Brc1ccc(CNc2ccnc(-c3ccc4c(c3)OCO4)n2)cc1Br

IC50 [1]: Not Active
IC50 [2]: Not Active
Structure (SMILES): Cc1ccc(CNc2ccnc(-c3ccc(N(C)C)cc3)n2)cc1

IC50 ([1]; read-out: IC50): 14.6 µM
IC50 [2]: Not Active
Structure (SMILES): COc1ccc(-c2nccc(NCc3ccc(Cl)c(Cl)c3)n2)cc1

IC50 [1]: Not Active
IC50 [2]: Not Active
Structure (SMILES): Cc1noc(C)c1-c1nccc(NCc2ccc(Cl)c(Cl)c2)n1

IC50 [3]: 0.884 µM
IC50 [4]: 1.26 µM
IC50 [5]: 0.273 µM
IC50 ([1]; read-out: IC50): 0.37 µM
IC50 ([2]; read-out: IC50): 0.52 µM
IC50 [6]: > 10 µM
IC50 [7]: 5.45 µM
Structure (SMILES): Clc1ccc(Nc2nccc(-c3ccc4c(c3)OCO4)n2)cc1

IC50 [3]: 8.86 µM
IC50 [4]: 2.37 µM
IC50 [5]: 4.58 µM
IC50 ([1]; read-out: IC50): 5.82 µM
IC50 ([2]; read-out: IC50): 26 µM
IC50 [6]: 8.79 µM
IC50 [7]: 9.28 µM
Structure (SMILES): Clc1ccc(CNc2ncncc2-c2ccc3c(c2)OCO3)cc1

IC50 [3]: 0.599 µM
IC50 [4]: 0.183 µM
IC50 [5]: 0.169 µM
IC50 ([1]; read-out: IC50): 5.82 µM
IC50 ([2]; read-out: IC50): 1.64 µM
IC50 [6]: 0.429 µM
IC50 [7]: 0.123 µM
Structure (SMILES): Clc1ccc(CNc2nccc(-c3ccc4cn[nH]c4c3)n2)cc1Cl

IC50 ([1]; read-out: IC50): 23.2 µM
IC50 [2]: Not Active
Structure (SMILES): Cc1ccc(CNc2ccnc(-c3ccc4c(c3)OCO4)n2)cc1

IC50 ([1]; read-out: IC50): 41.2 µM
Structure (SMILES): COc1cccc(-c2nccc(NCc3ccc(C)cc3)n2)c1
